Assay results published in the NIST ThermoML archive (doi:10.1016/j.jct.2013.07.003).
Numbers after ± are expanded uncertainties.

Experiments:
[1] = relative permittivity at various frequencies (dimensionless); xn = mol fraction of the nth substance listed; conditions: 101 kPa, Liquid, Frequency=0.1 MHz, Coaxial cylinder capacitor
[2] = refractive index (Na D-line) (dimensionless); xn = mol fraction of the nth substance listed; conditions: 101 kPa, Liquid, Standard Abbe refractometry

CC(O)CCO (stereo not given) [1,3-butanediol] + C1COCCO1
Conditions | refractive index, 298.2 K | refractive index, 303.2 K | refractive index, 308.2 K | refractive index, 313.2 K | refractive index, 318.2 K | relative permittivity, 298.2 K | relative permittivity, 303.2 K | relative permittivity, 308.2 K | relative permittivity, 313.2 K | relative permittivity, 318.2 K
[1], x1 = 0.103 | – | – | – | – | – | 3.36 ± 0.02 | 3.34 ± 0.02 | 3.32 ± 0.02 | 3.3 ± 0.02 | 3.28 ± 0.02
[1], x1 = 0.204 | – | – | – | – | – | 4.91 ± 0.02 | 4.85 ± 0.02 | 4.79 ± 0.02 | 4.72 ± 0.02 | 4.67 ± 0.02
[1], x1 = 0.301 | – | – | – | – | – | 6.73 ± 0.02 | 6.64 ± 0.02 | 6.54 ± 0.02 | 6.45 ± 0.02 | 6.38 ± 0.02
[1], x1 = 0.401 | – | – | – | – | – | 8.96 ± 0.02 | 8.82 ± 0.02 | 8.66 ± 0.02 | 8.52 ± 0.02 | 8.38 ± 0.02
[1], x1 = 0.451 | – | – | – | – | – | 10.17 ± 0.02 | 10 ± 0.02 | 9.83 ± 0.02 | 9.67 ± 0.02 | 9.5 ± 0.02
[1], x1 = 0.5 | – | – | – | – | – | 11.44 ± 0.02 | 11.23 ± 0.02 | 11.02 ± 0.02 | 10.85 ± 0.02 | 10.61 ± 0.02
[1], x1 = 0.548 | – | – | – | – | – | 12.76 ± 0.02 | 12.5 ± 0.02 | 12.25 ± 0.02 | 12.03 ± 0.02 | 11.77 ± 0.02
[1], x1 = 0.61 | – | – | – | – | – | 14.6 ± 0.03 | 14.3 ± 0.02 | 13.94 ± 0.02 | 13.63 ± 0.02 | 13.3 ± 0.02
[1], x1 = 0.699 | – | – | – | – | – | 17.46 ± 0.03 | 17.03 ± 0.03 | 16.58 ± 0.03 | 16.15 ± 0.03 | 15.73 ± 0.02
[1], x1 = 0.788 | – | – | – | – | – | 20.41 ± 0.03 | 19.88 ± 0.03 | 19.36 ± 0.03 | 18.88 ± 0.03 | 18.38 ± 0.03
[1], x1 = 0.897 | – | – | – | – | – | 24.35 ± 0.03 | 23.72 ± 0.03 | 23.02 ± 0.03 | 22.41 ± 0.03 | 21.79 ± 0.03
[1], x1 = 0.951 | – | – | – | – | – | 26.42 ± 0.04 | 25.72 ± 0.04 | 24.98 ± 0.04 | 24.29 ± 0.03 | 23.61 ± 0.03
[1], x1 = 1 | – | – | – | – | – | 28.52 ± 0.04 | 27.66 ± 0.04 | 26.77 ± 0.04 | 25.98 ± 0.04 | 25.22 ± 0.04
[2], x1 = 0.103 | 1.4217 ± 0.0005 | 1.4195 ± 0.0005 | 1.4165 ± 0.0005 | 1.414 ± 0.0005 | 1.4112 ± 0.0005 | – | – | – | – | –
[2], x1 = 0.204 | 1.4235 ± 0.0005 | 1.4213 ± 0.0005 | 1.4183 ± 0.0005 | 1.4161 ± 0.0005 | 1.4136 ± 0.0005 | – | – | – | – | –
[2], x1 = 0.301 | 1.425 ± 0.0005 | 1.423 ± 0.0005 | 1.4202 ± 0.0005 | 1.418 ± 0.0005 | 1.4155 ± 0.0005 | – | – | – | – | –
[2], x1 = 0.401 | 1.4268 ± 0.0005 | 1.425 ± 0.0005 | 1.4222 ± 0.0005 | 1.4202 ± 0.0005 | 1.4177 ± 0.0005 | – | – | – | – | –
[2], x1 = 0.451 | 1.4279 ± 0.0005 | 1.4258 ± 0.0005 | 1.4233 ± 0.0005 | 1.4213 ± 0.0005 | 1.419 ± 0.0005 | – | – | – | – | –
[2], x1 = 0.5 | 1.4287 ± 0.0005 | 1.4267 ± 0.0005 | 1.4243 ± 0.0005 | 1.4222 ± 0.0005 | 1.42 ± 0.0005 | – | – | – | – | –
[2], x1 = 0.548 | 1.4296 ± 0.0005 | 1.4275 ± 0.0005 | 1.4255 ± 0.0005 | 1.423 ± 0.0005 | 1.4209 ± 0.0005 | – | – | – | – | –
[2], x1 = 0.61 | 1.431 ± 0.0005 | 1.4285 ± 0.0005 | 1.4262 ± 0.0005 | 1.4242 ± 0.0005 | 1.4221 ± 0.0005 | – | – | – | – | –
[2], x1 = 0.699 | 1.4325 ± 0.0005 | 1.4308 ± 0.0005 | 1.4285 ± 0.0005 | 1.4267 ± 0.0005 | 1.4247 ± 0.0005 | – | – | – | – | –
[2], x1 = 0.788 | 1.4342 ± 0.0005 | 1.4326 ± 0.0005 | 1.4303 ± 0.0005 | 1.4287 ± 0.0005 | 1.4269 ± 0.0005 | – | – | – | – | –
[2], x1 = 0.897 | 1.4363 ± 0.0005 | 1.4348 ± 0.0005 | 1.4333 ± 0.0005 | 1.4314 ± 0.0005 | 1.4297 ± 0.0005 | – | – | – | – | –
[2], x1 = 0.951 | 1.4374 ± 0.0005 | 1.4361 ± 0.0005 | 1.4347 ± 0.0005 | 1.4329 ± 0.0005 | 1.4313 ± 0.0005 | – | – | – | – | –
[2], x1 = 1 | 1.4384 ± 0.0005 | 1.4371 ± 0.0005 | 1.4356 ± 0.0005 | 1.4341 ± 0.0005 | 1.4328 ± 0.0005 | – | – | – | – | –

CC(O)CCO (stereo not given) [1,3-butanediol] + CCCCCCCCO
Conditions | refractive index, 298.2 K | refractive index, 303.2 K | refractive index, 308.2 K | refractive index, 313.2 K | refractive index, 318.2 K | relative permittivity, 298.2 K | relative permittivity, 303.2 K | relative permittivity, 308.2 K | relative permittivity, 313.2 K | relative permittivity, 318.2 K
[1], x1 = 0.105 | – | – | – | – | – | 10.43 ± 0.03 | 9.99 ± 0.03 | 9.56 ± 0.03 | 9.1 ± 0.03 | 8.74 ± 0.02
[1], x1 = 0.2 | – | – | – | – | – | 11.24 ± 0.03 | 10.8 ± 0.03 | 10.32 ± 0.03 | 9.91 ± 0.03 | 9.5 ± 0.02
[1], x1 = 0.301 | – | – | – | – | – | 12.31 ± 0.03 | 11.86 ± 0.03 | 11.36 ± 0.03 | 10.95 ± 0.03 | 10.54 ± 0.02
[1], x1 = 0.401 | – | – | – | – | – | 13.6 ± 0.03 | 13.15 ± 0.03 | 12.62 ± 0.03 | 12.19 ± 0.03 | 11.76 ± 0.03
[1], x1 = 0.45 | – | – | – | – | – | 14.39 ± 0.03 | 13.92 ± 0.03 | 13.39 ± 0.03 | 12.94 ± 0.03 | 12.49 ± 0.03
[1], x1 = 0.501 | – | – | – | – | – | 15.23 ± 0.03 | 14.73 ± 0.03 | 14.21 ± 0.03 | 13.75 ± 0.03 | 13.27 ± 0.03
[1], x1 = 0.55 | – | – | – | – | – | 16.1 ± 0.03 | 15.6 ± 0.03 | 15.04 ± 0.03 | 14.53 ± 0.03 | 14.06 ± 0.03
[1], x1 = 0.6 | – | – | – | – | – | 17.05 ± 0.03 | 16.52 ± 0.03 | 15.93 ± 0.03 | 15.42 ± 0.03 | 14.92 ± 0.03
[1], x1 = 0.66 | – | – | – | – | – | 18.34 ± 0.03 | 17.77 ± 0.03 | 17.13 ± 0.03 | 16.57 ± 0.03 | 16.07 ± 0.03
[1], x1 = 0.7 | – | – | – | – | – | 19.31 ± 0.03 | 18.77 ± 0.03 | 18.02 ± 0.03 | 17.46 ± 0.03 | 16.91 ± 0.03
[1], x1 = 0.801 | – | – | – | – | – | 21.99 ± 0.04 | 21.34 ± 0.04 | 20.58 ± 0.03 | 20.02 ± 0.03 | 19.37 ± 0.03
[1], x1 = 0.9 | – | – | – | – | – | 25.05 ± 0.04 | 24.33 ± 0.04 | 23.43 ± 0.04 | 22.79 ± 0.03 | 22.1 ± 0.03
[1], x1 = 0.95 | – | – | – | – | – | 26.73 ± 0.04 | 25.9 ± 0.04 | 25.07 ± 0.04 | 24.31 ± 0.04 | 23.62 ± 0.03
[1], x1 = 1 | – | – | – | – | – | 28.52 ± 0.04 | 27.66 ± 0.04 | 26.77 ± 0.04 | 25.98 ± 0.04 | 25.22 ± 0.04
[2], x1 = 0.105 | 1.4279 ± 0.0005 | 1.4257 ± 0.0005 | 1.4233 ± 0.0005 | 1.4209 ± 0.0005 | 1.4189 ± 0.0005 | – | – | – | – | –
[2], x1 = 0.2 | 1.4283 ± 0.0005 | 1.4261 ± 0.0005 | 1.4238 ± 0.0005 | 1.4215 ± 0.0005 | 1.4195 ± 0.0005 | – | – | – | – | –
[2], x1 = 0.301 | 1.4288 ± 0.0005 | 1.4268 ± 0.0005 | 1.4245 ± 0.0005 | 1.4223 ± 0.0005 | 1.4204 ± 0.0005 | – | – | – | – | –
[2], x1 = 0.401 | 1.4295 ± 0.0005 | 1.4275 ± 0.0005 | 1.4253 ± 0.0005 | 1.4232 ± 0.0005 | 1.4213 ± 0.0005 | – | – | – | – | –
[2], x1 = 0.45 | 1.43 ± 0.0005 | 1.4281 ± 0.0005 | 1.4259 ± 0.0005 | 1.4239 ± 0.0005 | 1.4221 ± 0.0005 | – | – | – | – | –
[2], x1 = 0.501 | 1.4305 ± 0.0005 | 1.4286 ± 0.0005 | 1.4265 ± 0.0005 | 1.4245 ± 0.0005 | 1.4227 ± 0.0005 | – | – | – | – | –
[2], x1 = 0.55 | 1.4311 ± 0.0005 | 1.4292 ± 0.0005 | 1.4272 ± 0.0005 | 1.4253 ± 0.0005 | 1.4236 ± 0.0005 | – | – | – | – | –
[2], x1 = 0.6 | 1.4316 ± 0.0005 | 1.4298 ± 0.0005 | 1.4278 ± 0.0005 | 1.426 ± 0.0005 | 1.4245 ± 0.0005 | – | – | – | – | –
[2], x1 = 0.66 | 1.4325 ± 0.0005 | 1.4307 ± 0.0005 | 1.4288 ± 0.0005 | 1.427 ± 0.0005 | 1.4255 ± 0.0005 | – | – | – | – | –
[2], x1 = 0.7 | 1.4331 ± 0.0005 | 1.4314 ± 0.0005 | 1.4295 ± 0.0005 | 1.4278 ± 0.0005 | 1.4262 ± 0.0005 | – | – | – | – | –
[2], x1 = 0.801 | 1.4347 ± 0.0005 | 1.4331 ± 0.0005 | 1.4313 ± 0.0005 | 1.4298 ± 0.0005 | 1.4283 ± 0.0005 | – | – | – | – | –
[2], x1 = 0.9 | 1.4364 ± 0.0005 | 1.4349 ± 0.0005 | 1.4332 ± 0.0005 | 1.4318 ± 0.0005 | 1.4304 ± 0.0005 | – | – | – | – | –
[2], x1 = 0.95 | 1.4373 ± 0.0005 | 1.4359 ± 0.0005 | 1.4343 ± 0.0005 | 1.4329 ± 0.0005 | 1.4315 ± 0.0005 | – | – | – | – | –
[2], x1 = 1 | 1.4384 ± 0.0005 | 1.4371 ± 0.0005 | 1.4356 ± 0.0005 | 1.4341 ± 0.0005 | 1.4328 ± 0.0005 | – | – | – | – | –
